Reference: US11491155B2, “Salt of a pyrimido[6,1-A]isoquinolin-4-one compound” (VERONA PHARMA PLC, priority 2015, dated 2022)
Structures can show the parent of a compound that is named as a salt.

Assays:
[1] = Behaviour to humidity by Gravimetric Vapour Sorption (GVS); assay type: physicochemical; details: for Behaviour to humidity: GVS, 0-90% humidity, 25° C.; for water adsorbed: up to 90% humidity
Procedure: Gravimetric Vapour Sorption—Sorption isotherms were obtained using a Hiden Isochema moisture sorption analyser (model IGAsorp), controlled by IGAsorp Systems Software V6.50.48. The sample was maintained at a constant temperature (25° C.) by the instrument controls. The humidity was controlled by mixing streams of dry and wet nitrogen, with a total flow of 250 ml·min^−1. The instrument was verified for relative humidity content by measuring three calibrated Rotronic salt solutions (10-50-88%). The weight change of the sample was monitored as a function of humidity by a microbalance (accuracy+/−0.005 mg). A defined amount of sample was placed in a tared mesh stainless steel basket under ambient conditions. A full experimental cycle typically consisted of three scans (sorption, desorption and sorption) at a constant temperature (25° C.) and 10% RH intervals over a 0-90% range (60 minutes for each humidity level).
(§1) The nature of the hydration and a preliminary examination of salt robustness/polymorphism was assessed by thermal manipulation using ThermoGravimetric Analysis (TGA) and Gravimetric Vapor Soprtion (GVS).

[2] = Physico-chemical characteristics of salt candidates: solubility in water, pH of aqueous suspension/solution, form post water maturation
Procedure: The physico-chemical characteristics of the salt candidates were determined.

[3] = Thermal manipulation (isothermal 105° C., thermal cycle; TGA/DSC/XRPD); assay type: physicochemical
Procedure: Differential Scanning calorimetry (DSC)—DSC data were collected on a PerkinElmer Pyris 4000 DSC equipped with a 45 position sample holder. The instrument was verified for energy and temperature calibration using certified indium. A predefined amount of the sample, 0.5-3.0 mg, was placed in a pin holed aluminium pan and heated at 20° C.·min^−1 from 30 to 350° C., or varied as experimentation dictated. A purge of dry nitrogen at 60 ml·min^−1 was maintained over the sample. The instrument control, data acquisition and analysis were performed with Pyris Software v9.0.1.0203.
Thermo-Gravimetric Analysis (TGA)—TGA data were collected on a PerkinElmer Pyris 1 TGA equipped with a 20 position auto-sampler. The instrument was calibrated using a certified weight and certified Alumel and Perkalloy for temperature. A predefined amount of the sample, 1-5 mg, was loaded onto a pre-tared aluminium crucible and was heated at 20° C.·min^−1 from ambient temperature to 400° C. A nitrogen purge at 20 ml·min^−1 was maintained over the sample. The instrument control, data acquisition and analysis were performed with Pyris Software v9.0.1.0203.
as §1

[4] = Stability assessment of RPL554 and salts: lactose powder blends (70° C., seven days); assay type: physicochemical; details: after storage at both room and elevated (70° C.) temperatures, 7 days
Procedure: A validated HPLC method (Onyx-Scientific, Final product testing monograph for RPL554) for the determination of chemical purity by HPLC was used.
The following chromatography conditions were used: Column: Waters X Bridge phenyl, 3.5 μm, 150×4.6 mm, (Part number 186003335); Diluent: Acetonitrile:Water (50:50, v/v); Mobile Phase: A—Purified Water:Trifluoroacetic acid (100:0.1); B—Acetonitrile:Trifluoroacetic acid (100:0.1); Flow Rate: 1.0 mL/min; Injection Volume: 10 μl; Detection: UV @ 254 nm; Column Temperature: 30° C.; Post Run: 5 min; Gradient: [Time (min): % A:% B]: [0: 95:5], [2: 95:5]; [15: 5:95], [20: 5:95], [22: 95:5].
Samples of 1% w/w RPL554 free base or salt variants: lactose blends were prepared and stored at elevated temperature (70° C.) for seven days, control samples were stored at ambient conditions and protected from light on the laboratory bench. All samples (approximately 0.5 g) were accurately weighed into screw cap glass scintillation vials (20 mL). For storage at elevated temperature samples were placed in an oven at 70° C. protected from light. Control sample vials were capped, protected from light and stored on the bench for 7 days.
In addition, to the RPL554 and salt variant blends, samples of lactose alone were also stored at the elevated temperature condition (control samples at ambient). The lactose only samples served as baseline data for the HPLC analysis. […]

[5] = listed as ethane-1,2-disulfonate salt
[6] = listed as hydrochloride salt, hydrochloride

COc1cc2c(cc1OC)-c1c/c(=N\c3c(C)cc(C)cc3C)n(CCNC(N)=O)c(=O)n1CC2 [Ethane-1,2-disulfonate, RPL554 ethane-1,2-disulfonate]
Behaviour to humidity [1, 5]: reversible adsorption and desorption over the humidity range with no hysteresis | water uptake ([1]; to 50% humidity): 4 mole equivalents | water adsorbed [1, 5]: up to 5 mole equivalents | pH of aqueous suspension/solution ([2]; listed as Ethane-1,2-disulfonic): 3.72

COc1cc2c(cc1OC)-c1c/c(=N\c3c(C)cc(C)cc3C)n(CCNC(N)=O)c(=O)n1CC2 [Hydrochloride, RPL554 hydrochloride]
Behaviour to humidity [1, 6]: reversible adsorption and desorption over the humidity range with no hysteresis | water adsorbed [1, 6]: up to 2 mole equivalents | pH of aqueous suspension/solution ([2]; listed as Hydrochloric anhydrous source, hydrochloride): 3.68 | pH of aqueous suspension/solution ([2]; listed as Hydrochloric aqueous source, hydrochloride): 3.84 | form change by thermal manipulation ([3]; below the melt endotherm): No form change was detected | Thermal cycle ([3]; hydrochloride): Stable form

COc1cc2c(cc1OC)-c1c/c(=N\c3c(C)cc(C)cc3C)n(CCNC(N)=O)c(=O)n1CC2 [Sulfate, RPL554 sulfate]
peak area of the RPL554, % of the total areas [4]: 82% | pH of aqueous suspension/solution ([2]; listed as Sulfuric - aqueous solution): 1.87
